In article PMC4421842 (Nature Communications, 2015):

Legend:
[1] = system: E. faecalis; assay: microbe, parasite or virus in culture; type: cell-based; conditions: E. faecalis, gyrA Ser83Ile
[2] = system: E. faecium; assay: microbe, parasite or virus in culture; type: cell-based; conditions: E. faecium, gyrA Ser83Ile, parC Ser80Ile

Measured: MIC

Cc1cc(=O)n(C)c2c3c4c(cc12)c(C)cc(=O)n4CO3 [DNM, deoxynybomycin]
0.25 µg/mL: [1]; C21667, parC Ser80Ile | [1]; C28535, parC Ser80Ile | [1]; S234, parC Ser80Ile Glu84Asp | [2]; C27569 | [2]; D1 | [2]; S51 | [2]; S122 | [2]; SL152

CCn1c(=O)cc(C)c2cc3c(C)cc(=O)n4c3c(c21)OC4 [DNM-2]
0.25 µg/mL: [1]; C28535, parC Ser80Ile | [1]; S234, parC Ser80Ile Glu84Asp
